Experimental data as given in ChEMBL document CHEMBL1201862, “PubChem BioAssay data set” (2004).
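The compound was tested at five concentrations on cells cultured in 96-well plates, with a 48-hour exposure period. The concentration for 50% growth inhibition is given as GI50.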 Active and inactive are the calls of the source. Rule as the data show it: active = GI50 up to about 1.1 µM and inactive = higher.

What was measured:
Test in all cases: inhibition of tumour cell growth, NCI panel, 48 h
UACC-257 = tested on: UACC-257
HT-29 = tested on: HT-29
IGROV-1 = tested on: IGROV-1
KM12 = tested on: KM12
TK-10 = tested on: TK-10
SW-620 = tested on: SW-620
CCRF-CEM = tested on: CCRF-CEM
KM-20L2 = tested on: KM-20L2
ACHN = tested on: ACHN
RXF 393 = tested on: RXF 393
SF-268 = tested on: SF-268
NCI-H460 = tested on: NCI-H460
M19-MEL = tested on: M19-MEL
A549 = tested on: A549
OVCAR-3 = tested on: OVCAR-3
K562 = tested on: K562
M14 = tested on: M14
U-251 = tested on: U-251
NCI-H522 = tested on: NCI-H522
CAKI-1 = tested on: CAKI-1
786-0 = tested on: 786-0
HCT-15 = tested on: HCT-15
SF-295 = tested on: SF-295
SR = tested on: SR
LXFL 529 = tested on: LXFL 529
RPMI-8226 = tested on: RPMI-8226
XF498 = tested on: XF498
OVCAR-5 = tested on: OVCAR-5
HL-60 = tested on: HL-60
OVCAR-8 = tested on: OVCAR-8
SN12C = tested on: SN12C
COLO 205 = tested on: COLO 205
DMS-273 = tested on: DMS-273
NCI-H23 = tested on: NCI-H23
SF-539 = tested on: SF-539
OVCAR-4 = tested on: OVCAR-4
NCI-H226 = tested on: NCI-H226
SNB-78 = tested on: SNB-78
HCT-116 = tested on: HCT-116
DLD-1 = tested on: DLD-1
RXF 631 = tested on: RXF 631
A498 = tested on: A498
HOP-92 = tested on: HOP-92
EKVX = tested on: EKVX
SK-OV-3 = tested on: SK-OV-3
UO-31 = tested on: UO-31
HCC 2998 = tested on: HCC 2998
SK-MEL-5 = tested on: SK-MEL-5
DMS-114 = tested on: DMS-114
UACC-62 = tested on: UACC-62
SNB-75 = tested on: SNB-75
SNB-19 = tested on: SNB-19
HOP-62 = tested on: HOP-62
Malme-3M = tested on: Malme-3M
LOX IMVI = tested on: LOX IMVI
MOLT-4 = tested on: MOLT-4
SK-MEL-28 = tested on: SK-MEL-28
HOP-18 = tested on: HOP-18
SK-MEL-2 = tested on: SK-MEL-2

CCCCCCCCCC(=O)N[C@H]1CCc2cc(OC)c(OC)c(OC)c2-c2ccc(SC)c(=O)cc21
GI50 (UACC-257): 0.0417 µM (active) | GI50 (HT-29): 0.0261 µM (active) | GI50 (IGROV-1): 0.0387 µM (active) | GI50 (KM12): 0.0209 µM (active) | GI50 (TK-10): 0.759 µM (active) | GI50 (SW-620): 0.0316 µM (active) | GI50 (CCRF-CEM): 0.0426 µM (active) | GI50 (KM-20L2): 0.0198 µM (active) | GI50 (ACHN): 0.0507 µM (active) | GI50 (RXF 393): 0.0224 µM (active) | GI50 (SF-268): 0.0223 µM (active) | GI50 (NCI-H460): 0.0347 µM (active) | GI50 (M19-MEL): 0.0445 µM (active) | GI50 (A549): 0.0376 µM (active) | GI50 (OVCAR-3): 0.0226 µM (active) | GI50 (K562): 0.0395 µM (active) | GI50 (M14): 0.0226 µM (active) | GI50 (U-251): 0.0274 µM (active) | GI50 (NCI-H522): < 0.01 µM (active) | GI50 (CAKI-1): 0.056 µM (active) | GI50 (786-0): 0.0393 µM (active) | GI50 (HCT-15): 0.0313 µM | GI50 (SF-295): 0.0274 µM (active) | GI50 (SR): 0.0328 µM (active) | GI50 (LXFL 529): 0.0297 µM (active) | GI50 (RPMI-8226): 0.0422 µM (active) | GI50 (XF498): 0.022 µM (active) | GI50 (OVCAR-5): 29.7 µM (inactive) | GI50 (HL-60): 0.034 µM (active) | GI50 (OVCAR-8): 0.0338 µM (active) | GI50 (SN12C): 0.0365 µM (active) | GI50 (COLO 205): 0.00345 µM (active) | GI50 (DMS-273): < 0.01 µM (active) | GI50 (NCI-H23): 0.0216 µM (active) | GI50 (SF-539): 0.0224 µM (active) | GI50 (OVCAR-4): 0.408 µM (active) | GI50 (NCI-H226): 0.0231 µM (active) | GI50 (SNB-78): 0.0405 µM (active) | GI50 (HCT-116): 0.0209 µM (active) | GI50 (DLD-1): 0.0352 µM (active) | GI50 (RXF 631): 0.0197 µM (active) | GI50 (A498): 0.0255 µM (active) | GI50 (HOP-92): 0.0168 µM (active) | GI50 (EKVX): 0.0527 µM (active) | GI50 (SK-OV-3): 0.0238 µM (active) | GI50 (UO-31): 0.231 µM (active) | GI50 (HCC 2998): 0.0247 µM (active) | GI50 (SK-MEL-5): 0.024 µM (active) | GI50 (DMS-114): 0.0188 µM (active) | GI50 (UACC-62): 0.0353 µM (active) | GI50 (SNB-75): 0.0395 µM (active) | GI50 (SNB-19): 0.0329 µM (active) | GI50 (HOP-62): 0.0478 µM (active) | GI50 (Malme-3M): 0.0226 µM (active) | GI50 (LOX IMVI): 0.043 µM (active) | GI50 (MOLT-4): 0.0392 µM (active)

COc1cc(-c2nn3c(=O)n(-c4ccc(Cl)cc4)c(=O)nc3s2)cc(OC)c1OC
GI50 (UACC-257): > 58.7 µM (inactive) | GI50 (HT-29): > 100 µM (inactive) | GI50 (IGROV-1): > 89.1 µM (inactive) | GI50 (KM12): > 65.8 µM (inactive) | GI50 (TK-10): 8.55 µM (inactive) | GI50 (SW-620): > 100 µM (inactive) | GI50 (CCRF-CEM): > 100 µM (inactive) | GI50 (KM-20L2): > 100 µM (inactive) | GI50 (ACHN): 16.3 µM (inactive) | GI50 (RXF 393): 8.87 µM (inactive) | GI50 (SF-268): > 50 µM (inactive) | GI50 (NCI-H460): > 100 µM (inactive) | GI50 (M19-MEL): > 100 µM (inactive) | GI50 (A549): 41 µM (inactive) | GI50 (OVCAR-3): 54.5 µM (inactive) | GI50 (K562): > 31.6 µM (inactive) | GI50 (M14): 39.2 µM (inactive) | GI50 (U-251): 18 µM (inactive) | GI50 (NCI-H522): > 58.2 µM (inactive) | GI50 (CAKI-1): 18.2 µM (inactive) | GI50 (786-0): 12.3 µM (inactive) | GI50 (HCT-15): > 88.3 µM | GI50 (SF-295): > 50 µM (inactive) | GI50 (RPMI-8226): > 50 µM (inactive) | GI50 (OVCAR-5): > 100 µM (inactive) | GI50 (HL-60): > 50 µM (inactive) | GI50 (OVCAR-8): > 49.5 µM (inactive) | GI50 (SN12C): > 96.2 µM (inactive) | GI50 (COLO 205): > 100 µM (inactive) | GI50 (DMS-273): 23.2 µM (inactive) | GI50 (NCI-H23): 37.6 µM (inactive) | GI50 (SF-539): 17 µM (inactive) | GI50 (OVCAR-4): 41.9 µM (inactive) | GI50 (NCI-H226): > 55.7 µM (inactive) | GI50 (SNB-78): 19.4 µM (inactive) | GI50 (HCT-116): 33.7 µM (inactive) | GI50 (DLD-1): > 86.9 µM (inactive) | GI50 (RXF 631): 48.1 µM (inactive) | GI50 (A498): > 67 µM (inactive) | GI50 (HOP-92): 15.5 µM (inactive) | GI50 (EKVX): > 86.5 µM (inactive) | GI50 (SK-MEL-28): > 93.1 µM (inactive) | GI50 (SK-OV-3): > 50 µM (inactive) | GI50 (UO-31): > 76.6 µM (inactive) | GI50 (HCC 2998): > 100 µM (inactive) | GI50 (SK-MEL-5): > 52.4 µM (inactive) | GI50 (UACC-62): > 50 µM (inactive) | GI50 (SNB-75): 8.24 µM (inactive) | GI50 (SNB-19): 19.1 µM (inactive) | GI50 (HOP-18): 57 µM (inactive) | GI50 (HOP-62): 18.4 µM (inactive) | GI50 (Malme-3M): 65.9 µM (inactive) | GI50 (LOX IMVI): 18.5 µM (inactive) | GI50 (MOLT-4): 98.2 µM (inactive) | GI50 (SK-MEL-2): 24.9 µM (inactive)
